From ChEMBL document CHEMBL5500426, “Directly Suppressing MYC Function with Novel Alkynyl-Substituted Phenylpyrazole Derivatives that Induce Protein Degradation and Perturb MYC/MAX Interaction” (J Med Chem, 2024)
pIC50: −log10 of the molar value. Activity calls are given as the source filed them. No cut-off for these calls is given here.

Key:
A549 = assay: Antiproliferative activity against human A549 cells assessed as inhibition of cell growth incubated for 72 hrs by MTT assay; format: functional, cell-based; details: A549, 72 h
Myc-CaP [1] = assay: Antitumor activity against mouse Myc-CaP cells implanted in FVB mouse assessed as reduction in tumor volume at ip administrated daily for 14 consecutive days; format: functional, organism-based
Myc-CaP [2] = assay: Antiproliferative activity against mouse Myc-CaP cells assessed as inhibition of cell growth incubated for 72 hrs by MTT assay; format: functional, cell-based
PC-3 [3] = assay: Antitumor activity against human PC-3 cells xenografted in BALB/C mouse assessed as tumor growth inhibition at 75 mg/kg,ip administrated daily for 21 consecutive days relative to control; format: functional; details: read-out: TGI
[4] = Clearance in Sprague-Dawley rat at 2 mg/kg,iv administration by LC-MS/MS analysis; format: ADME, organism-based; details: in vivo
[5] = molecular target: Protein max (Homo sapiens) (UniProt P61244); assay: Binding affinity to MAX in human PC-3 cells assessed as effect on protein thermal stabilization at 10 uM with 37 to 58 degreeC incubated for 1 hr by CETSA based Western blotting analysis; format: cell-based
[6] = Cytotoxicity against human HUVEC cells assessed as inhibition of cell growth incubated for 72 hrs by MTT assay; format: toxicity, cell-based
[7] = Toxicity in BALB/C mouse xenografted with human PC-3 cells assessed as histopathological change in liver at 50 to 100 mg/kg,ip administrated daily for 21 consecutive days by hematoxylin and eosin staining based microscopic analysis; format: organism-based; details: in vivo, dose 50-100 mg/kg
[8] = Volume of distribution at steady state in Sprague-Dawley rat at 10 mg/kg,ip administration by LC-MS/MS analysis; format: ADME, organism-based; details: in vivo
PC-3 [9] = assay: Antitumor activity against human PC-3 cells xenografted in BALB/C mouse assessed as reduction in tumor weight at ip administrated daily for 21 consecutive days; format: functional, organism-based
MV4-11 = assay: Antiproliferative activity against human MV4-11 cells assessed as inhibition of cell growth incubated for 72 hrs by MTT assay; format: functional, cell-based; details: MV4-11, 72 h
MDA-MB-231 = assay: Antiproliferative activity against human MDA-MB-231 cells assessed as inhibition of cell growth incubated for 72 hrs by MTT assay; format: functional, cell-based; details: MDA-MB-231, 72 h
HepG2 = assay: Antiproliferative activity against human HepG2 cells assessed as inhibition of cell growth incubated for 72 hrs by MTT assay; format: functional, cell-based; details: HepG2, 72 h
[10] = molecular target: Myc proto-oncogene protein (Homo sapiens) (UniProt P01106); assay: Inhibition of MYC in human PC-3 cells assessed as downregulation of MYC expression at 1 uM incubated for 24 hrs by Western blotting analysis relative to control; format: cell-based
Sequence of Myc proto-oncogene protein (Homo sapiens) (P01106 whole entry): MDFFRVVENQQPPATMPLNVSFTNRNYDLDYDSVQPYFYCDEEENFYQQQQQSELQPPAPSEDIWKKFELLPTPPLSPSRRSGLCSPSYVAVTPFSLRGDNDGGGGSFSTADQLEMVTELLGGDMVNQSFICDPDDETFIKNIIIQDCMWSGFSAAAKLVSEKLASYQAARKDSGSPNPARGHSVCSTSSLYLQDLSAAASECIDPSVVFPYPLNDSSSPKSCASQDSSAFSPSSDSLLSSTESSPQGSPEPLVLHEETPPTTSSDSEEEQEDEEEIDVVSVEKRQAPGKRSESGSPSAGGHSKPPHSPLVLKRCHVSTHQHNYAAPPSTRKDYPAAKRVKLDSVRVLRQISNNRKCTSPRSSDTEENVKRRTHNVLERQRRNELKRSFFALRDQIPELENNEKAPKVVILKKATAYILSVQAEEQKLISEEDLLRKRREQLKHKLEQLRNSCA

Sequence of Protein max (Homo sapiens) (P61244 whole entry): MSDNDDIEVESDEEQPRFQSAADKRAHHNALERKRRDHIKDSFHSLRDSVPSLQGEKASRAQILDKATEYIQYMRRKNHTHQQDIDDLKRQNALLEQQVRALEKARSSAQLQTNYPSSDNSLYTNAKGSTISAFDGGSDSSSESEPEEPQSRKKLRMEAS

- pIC50 (A549): 5.91
- clearance [4]: 23.6 mL/min/kg
- Activity [5]: inactive
- Vdss [8]: 38.43 L/kg
- pIC50 (MV4-11): 6.05
- pIC50 (MDA-MB-231): 5.87
- pIC50 (HepG2): 5.96
- inhibition [10]: > 50%
Structure (SMILES): Oc1c(-c2cc(C(F)(F)F)n[nH]2)ccc(C#CCCN2CCOCC2)c1-c1ccc(Cl)c(C(F)(F)F)c1
- Activity (Myc-CaP [1]): Dose-Dependent Effect
- pIC50 (Myc-CaP [2]): 6.26
- inhibition in vivo at 75 mg/kg (PC-3 [3]): 69%
- IC50 at 72 h [6]: 16.6 µM
- Activity [7]: Non-Toxic
- Activity (PC-3 [9]): Dose-Dependent Effect
